Data: PubChem BioAssay (NCI)
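Dose response: 5 concentrations. Exposure: 48 h. Format: 96-well plates. Endpoint: linear interpolation; highest concentration if not reached. Definition used: TGI = concentration required for complete inhibition of growth.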

Tests used:
Experiment in all cases: inhibition of tumour cell growth, NCI panel, 48 h
SK-MEL-28 melanoma = system: SK-MEL-28 melanoma
COLO 205 colon = system: COLO 205 colon
OVCAR-4 ovarian = system: OVCAR-4 ovarian
HCT-15 colon = system: HCT-15 colon
MOLT-4 leukemia = system: MOLT-4 leukemia
A498 renal = system: A498 renal
SF-539 CNS = system: SF-539 CNS
SN12C renal = system: SN12C renal
HCC-2998 colon = system: HCC-2998 colon
NCI/ADR-RES ovarian = system: NCI/ADR-RES ovarian

Compound	TGI (SK-MEL-28 melanoma)	TGI (COLO 205 colon)	TGI (OVCAR-4 ovarian)	TGI (HCT-15 colon)	TGI (MOLT-4 leukemia)	TGI (A498 renal)	TGI (SF-539 CNS)	TGI (SN12C renal)	TGI (HCC-2998 colon)	TGI (NCI/ADR-RES ovarian)
c1cnn(CN(Cn2cccn2)Cn2cccn2)c1	> 100 µM	> 100 µM	> 100 µM	> 100 µM	> 100 µM	> 100 µM	> 100 µM	> 100 µM	–	–
O=C(CCc1nc(=S)[nH][nH]1)Nc1ccccc1Cl	> 100 µM	> 100 µM	> 100 µM	41.3 µM	> 100 µM	> 100 µM	> 100 µM	> 100 µM	> 100 µM	–
COC(=O)C(Cc1nc2ccccc2[nH]c1=O)C(NO)C(=O)Nc1c(Cl)cc([N+](=O)[O-])cc1Cl (centres undefined)	> 100 µM	> 100 µM	> 100 µM	> 100 µM	67 µM	46.5 µM	56.5 µM	> 100 µM	> 100 µM	–
O=C(O)CNS(=O)(=O)c1ccc(NC(=O)c2ccc([N+](=O)[O-])cc2)cc1	> 100 µM	> 100 µM	> 100 µM	> 100 µM	> 100 µM	> 100 µM	> 100 µM	> 100 µM	> 100 µM	–
CCCN(CCC)C(=O)c1c([N+](=O)[O-])cc(C(F)(F)F)cc1[N+](=O)[O-]	> 100 µM	39.1 µM	32.9 µM	> 100 µM	> 100 µM	> 100 µM	> 100 µM	> 100 µM	–	–
CN(C)CCC1(C2=CCCC2)CC/C(=C\c2ccc(Cl)cc2)C1=O (centres undefined)	7.4 µM	28.3 µM	21.5 µM	16.6 µM	6.02 µM	19.1 µM	25.7 µM	24.3 µM	20.2 µM	–
O=C(c1cccc2ccccc12)N1CCC(C2CCN(C(=O)c3cccc4ccccc34)CC2)CC1	> 100 µM	> 100 µM	–	> 100 µM	> 100 µM	> 100 µM	> 100 µM	> 100 µM	–	–
CCOC(=O)C1SC(=Nc2ccc(C)c(C)c2)N=C1C (centres undefined)	> 100 µM	> 100 µM	> 100 µM	> 100 µM	> 100 µM	> 100 µM	> 100 µM	> 100 µM	> 100 µM	–
CNC(=S)/N=C(\N)N(C)C	> 100 µM	> 100 µM	> 10 µM	> 100 µM	> 100 µM	> 100 µM	> 100 µM	> 100 µM	> 100 µM	–
COC(=O)[C@@]12C(=O)C=CC(=O)C1C1C(=CC2C)OC2OC3(CCCCC3)OC21 (some centres undefined)	33.6 µM	28.4 µM	30.3 µM	31.1 µM	37.5 µM	32.2 µM	–	33.2 µM	28.2 µM	–
COc1cc2[nH]c3c(c2cc1OC)CCN[C@]31CC[C@]2(CC3c4c(cc(OC)c(O)c42)CCN3C)C[C@H]1OC (some centres undefined)	36.6 µM	27.3 µM	43.3 µM	43.1 µM	33.8 µM	70.9 µM	31.5 µM	62.8 µM	29.8 µM	–
O=C1c2ccccc2C(=O)C1(O)c1c[nH]c2ccccc12	> 100 µM	> 100 µM	> 100 µM	> 100 µM	> 100 µM	–	> 100 µM	–	–	–
CCCCNC1CCCCC[C@H]1O (some centres undefined)	> 100 µM	> 100 µM	> 100 µM	–	> 100 µM	–	> 100 µM	> 100 µM	> 100 µM	–
O=C1C2C3C=C4c5ccccc5N(c5ccccc5)C4(C2C(=O)N1c1ccc([N+](=O)[O-])cc1)[C@H]1C(=O)N(c2ccc([N+](=O)[O-])cc2)C(=O)[C@@H]31 (some centres undefined)	> 100 µM	> 100 µM	> 100 µM	> 100 µM	> 100 µM	> 100 µM	> 100 µM	> 100 µM	> 100 µM	–
Cc1nnc(NS(=O)(=O)c2ccc(N=Nc3cc(N=Nc4ccc(S(=O)(=O)Nc5nnc(C)s5)cc4)c4c(NC(=O)C(Cl)Cl)cccc4c3OC(=O)C(Cl)Cl)cc2)s1 (tested in a mixture with another compound)	48.5 µM	> 100 µM	39 µM	> 100 µM	33 µM	> 100 µM	43 µM	> 100 µM	62.1 µM	–
C=C(C)CCN[Si](c1ccccc1)(c1ccccc1)C(C)(C)C	42.7 µM	33.3 µM	44.4 µM	48.1 µM	52.6 µM	> 100 µM	29.1 µM	32.7 µM	43.3 µM	–
Cc1[nH]c(=O)nc2[nH][nH]c(=O)c12	> 100 µM	> 100 µM	> 100 µM	> 100 µM	> 100 µM	–	> 100 µM	> 100 µM	–	–
CCOC(=O)CCC(=O)C1c2cccc(O)c2C(=O)c2c(O)cc(C)cc21 (centres undefined)	2.92 µM	3.57 µM	1.76 µM	2.25 µM	6.76 µM	4.75 µM	0.535 µM	3.75 µM	2.09 µM	–

Compound	TGI (SK-MEL-28 melanoma)	TGI (COLO 205 colon)	TGI (OVCAR-4 ovarian)	TGI (HCT-15 colon)	TGI (MOLT-4 leukemia)	TGI (A498 renal)	TGI (SF-539 CNS)	TGI (SN12C renal)	TGI (HCC-2998 colon)	TGI (NCI/ADR-RES ovarian)
CCOC(=O)C(=O)Nc1ccccc1CC	> 100 µM	–	> 100 µM	–	> 100 µM	–	> 100 µM	> 100 µM	> 100 µM	–
Cn1cc(C2(C)CC(C)(C)c3c2n(C)c2ccccc32)c2ccccc21 (centres undefined)	> 100 µM	> 100 µM	–	> 100 µM	> 100 µM	> 100 µM	> 100 µM	> 100 µM	> 100 µM	–
CC(C)c1c(O)c(O)c2c(c1O)C(=O)C(O)=C1C(C)(C)CCC[C@@]12C	17.7 µM	3.6 µM	16.7 µM	13.2 µM	5.99 µM	11.9 µM	14.8 µM	18.7 µM	10.4 µM	–
Clc1cc(Cl)c2ns[s+]c2c1Cl	> 100 µM	> 100 µM	> 100 µM	–	> 100 µM	> 100 µM	> 100 µM	> 100 µM	–	–
COc1ccc(-c2cc(-c3cc(C)cc(Br)c3O)no2)cc1	> 100 µM	–	13.2 µM	> 100 µM	> 100 µM	13 µM	25 µM	85.2 µM	–	> 100 µM
O=C(N/N=C/c1cc(Br)ccc1O)N/N=C/c1cc(Br)ccc1O	> 100 µM	> 100 µM	> 100 µM	–	> 100 µM	> 100 µM	> 100 µM	> 100 µM	–	–
CC1=CC(C)(C)N=C2SC(c3ccc(N)cc3)=NN12	> 100 µM	> 61.2 µM	> 100 µM	> 58.7 µM	> 100 µM	> 100 µM	> 100 µM	> 100 µM	> 100 µM	–
CCOC(=O)/C(C)=C(/O)C(=O)OCC	> 100 µM	> 100 µM	> 100 µM	> 100 µM	> 100 µM	> 100 µM	> 100 µM	> 100 µM	> 100 µM	–
CC(=O)C1Cn2c(nc3ccccc32)C[Se]1 (centres undefined)	8.75 µM	30.1 µM	11.8 µM	20.5 µM	6.79 µM	32.7 µM	4.89 µM	13.8 µM	22.9 µM	–
Nc1ccccc1/C(O)=C1/CCOC1=O	> 100 µM	> 100 µM	> 100 µM	–	> 100 µM	> 100 µM	–	> 100 µM	–	–
COc1cc(/C=C/c2ccc(OC)c(O)c2)cc(OC)c1	24.5 µM	59.3 µM	67.9 µM	24.2 µM	15.7 µM	> 100 µM	8.47 µM	30.3 µM	42.6 µM	–
COC(=O)C12CC3CC(CC(C(=O)O)(C3)C1)C2	> 100 µM	–	> 100 µM	> 100 µM	> 100 µM	> 100 µM	> 100 µM	> 100 µM	> 100 µM	–
[N-]=[N+]=C1C(=O)NN=C1c1ccccc1	> 100 µM	> 100 µM	> 100 µM	> 100 µM	> 100 µM	–	> 100 µM	> 100 µM	> 100 µM	–
c1ccc(C2N3CCCCC3[C@@H]3c4[nH]c5ccccc5c4CCN23)nc1 (some centres undefined)	> 100 µM	–	> 100 µM	> 100 µM	> 100 µM	> 100 µM	> 100 µM	> 100 µM	–	–
CCOC(=O)N[C@@H]1C(CC(=O)OC)O[C@H]2OC(C)(C)O[C@H]21 (some centres undefined)	> 100 µM	> 100 µM	> 100 µM	> 100 µM	> 100 µM	> 100 µM	> 100 µM	> 100 µM	> 100 µM	–
Cc1cc(NC(=S)SCc2ccc(F)cc2)c([N+](=O)[O-])cc1C	> 100 µM	37.2 µM	> 100 µM	46.4 µM	16.9 µM	–	53.2 µM	48.4 µM	–	62.2 µM
O=C(Nc1ccccc1-c1nc2ccccc2[nH]c1=O)c1ccccc1	> 100 µM	> 100 µM	50.6 µM	> 100 µM	> 100 µM	51.3 µM	49.6 µM	69.1 µM	33.7 µM	–
CCCC1=C(CC)C(C(=O)Nc2c(C)cccc2C)=NC(S)N1 (centres undefined)	> 100 µM	> 100 µM	> 100 µM	> 100 µM	> 100 µM	> 100 µM	> 100 µM	> 100 µM	–	–
